Test [1] is described as follows: Flow cytometric Annexin V-FITC/PI apoptosis assay, combined data sets. The conditions noted are these: Homo sapiens, Raji, 24 or 48 hours treatment, 0.5-50 μM, read-out: estimated IC50 (apoptosis). Format: cell-based. An excerpt: Cell lines and Apoptosis Assays. We used the human leukemia cell lines ALL-1 (Ph+ adult ALL, B-lineage), LOUCY (adult T-lineage ALL; ATCC® CRL-2629™), and RAJI (Burkitt's leukemia/lymphoma; ATCC®, CCL-86) as targets to evaluate the anti-leukemic activity of cinchona alkaloids. In vivo leukemia initiating xenograft clones capable of causing disseminated and fatal leukemia in NOD-SCID mice, derived from primary leukemia cells of 5 patients with relapsed ALL, and the aforementioned 3 leukemia cells lines were treated for 24 hours or 48 hours at 37° C. with cinchona alkaloids at increasing concentrations ranging from 0.5 μM to 50 μM. Controls cells were treated with vehicle (PBS).
Apoptotic death was monitored using multiparameter flow cytometry, as previously reported (Uckun, F. M. et al., British Journal of Haematology, 2011, 153:741-752; Uckun, F. M. et al., J Clin Invest., 2015, 125:1006-18). Controls included vehicle (PBS) treated cells (CON). Cells were analyzed for apoptosis using the standard quantitative flow cytometric apoptosis assay using the Annexin V-FITC Apoptosis Detection Kit from Sigma. The labeled cells were analyzed on a LSR II flow cytometer. The percent apoptosis was calculated using the formula: 100−100×(Percentage of non-apoptotic cells in test sample/Percentage of non-apoptotic cells in untreated control sample). […]

Test [2] deals with ALL-1 BCR-ABL/Ph+ B-lineage ALL cell line. The experiment in a line: Clonogenic assay (methylcellulose colony assay). It is filed as cell-based, human. Here is the method:
(§1) Clonogenic Assays. The cytotoxicity of cinchona alkaloids was tested against clonogenic human cancer cells was examined using a methylcellulose colony assay system, as described previously (Uckun, F. M. et al., J. Exp. Med., 1986, 163: 347-68; Uckun, F. M. et al., J. Clin. Invest., 1993, 91: 1044-1051). In brief, cells (10^5 cells/ml in RPMI-10% fetal bovine serum) were treated for 8 hours at 37° C. with cinchona alkaloids at varying concentrations. After treatment, cells were washed twice, and resuspended in clonogenic medium consisting of RPMI 1640 supplemented with 0.9% methylcellulose, 10% fetal bovine serum, and 50 μM 2-mercaptoethanol. Cells were plated at 5×10^4 cells/ml in RPMI 1640 supplemented with 10% fetal bovine serum, and 0.9% methylcellulose in duplicate 35-mm Petri dishes, and cultured for 7 days at 37° C. in a humidified 5% CO2 incubator. Subsequently, cancer cell colonies were enumerated on a grid using an inverted phase-contrast microscope of high optical resolution. Results were expressed as the % Inhibition=[1−(Number of colonies in compound-treated test cultures/Number of colonies in vehicle-treated control cultures)]×100.
as §1, with “cytotoxicity of synthetic dimeric cinchona alkaloids” for “cytotoxicity of cinchona alkaloids”

Consider one compound from patent publication US11649232B2, “Synthetic dimeric cinchona alkaloids against cancer” (Ares Pharmaceuticals, LLC, priority 2021, dated 2023).

Take `CCC1(O)CCN2CCC1C[C@@H]2[C@@H](Oc1nnc(O[C@H](c2ccnc3ccc(OC)cc23)[C@@H]2N3CC[C@H]4C(O)(CC)CC243)c2ccccc12)c1ccnc2ccc(OC)cc12` (mixture of isomers) [ARES-BI-C001453]: the IC50 (commonly the concentration needed to halve the response being measured) in test [1] is 8.6 µM; in test [2] (Homo sapiens, ALL-1, two independent experiments, non-linear regression, read-out: IC50, inhibition of clonogenic growth), 0.29 µM. In addition, in test [2] (10 μM), the “in vitro colony formation by ALL-1 cells” value is reported as “abrogated the in vitro colony formation”. Besides, the “Colonies/5 × 10^4 Cells” value is recorded as 27.5 Colonies/5 × 10^4 Cells in test [2] (ALL-1 EXP#1, 1 μM); 32.0 Colonies/5 × 10^4 Cells in test [2] (ALL-1 EXP#1, 3 μM); 0.0 Colonies/5 × 10^4 Cells in test [2] (ALL-1 EXP#1, 10 μM); 99.5 Colonies/5 × 10^4 Cells in test [2] (ALL-1 EXP#2, 1 μM); 14.5 Colonies/5 × 10^4 Cells in test [2] (ALL-1 EXP#2, 3 μM); 0.0 Colonies/5 × 10^4 Cells in test [2] (ALL-1 EXP#2, 10 μM). Also, the inhibition (in general, the relative decrease from the control value, in per cent) at 1 µM in test [2] (Homo sapiens, ALL-1 EXP#1, 1 μM) was 91.5%; in test [2] (Homo sapiens, ALL-1 EXP#2, 1 μM), 56.1%. Moreover, the inhibition at 3 µM in test [2] (Homo sapiens, ALL-1 EXP#1, 3 μM) came out at 90.1%; in test [2] (Homo sapiens, ALL-1 EXP#2, 3 μM), 93.6%. Also, the inhibition at 10 µM in test [2] (Homo sapiens, ALL-1 EXP#1, 10 μM) was above 99.7%; in test [2] (Homo sapiens, ALL-1 EXP#2, 10 μM), above 99.6%.
